What was measured:
Test in all cases: KINOMEscan
Assay type in all cases: binding
Settings in all cases: 1 μM
HIPK4 = molecular target: T1, HIPK4 (Homo sapiens, UniProt Q8NE63)
T1 construct: purchased Eurofins DiscoverX Corporation

KIT(L576P) = molecular target: T2, KIT(L576P) (Homo sapiens, UniProt P10721, L576P)
T2 construct: purchased Eurofins DiscoverX (KINOMEscan)

ERBB4 = ERBB4 (Homo sapiens, UniProt Q15303)
EPHA6 = EPHA6 (Homo sapiens, UniProt Q9UF33)
AURKC = AURKC (Homo sapiens, UniProt Q9UQB9)
LRRK2 = molecular target: T3, LRRK2 (Homo sapiens, UniProt Q5S007)
T3 construct: purchased Eurofins DiscoverX Corporation

DYRK1B = molecular target: T4, DYRK1B (Homo sapiens, UniProt Q9Y463)
T4 construct: purchased Eurofins DiscoverX Corporation

PIK3CA(I800L) = PIK3CA(I800L) (Homo sapiens, UniProt P42336, I800L)
PIK3CA(H1047Y) = PIK3CA(H1047Y) (Homo sapiens, UniProt P42336, H1047Y)
NEK6 = NEK6 (Homo sapiens, UniProt Q9HC98)
DRAK1 = molecular target: T5, DRAK1 (Homo sapiens, UniProt Q9UEE5)
T5 construct: purchased Eurofins DiscoverX Corporation

CAMKK2 = molecular target: T6, CAMKK2 (Homo sapiens, UniProt Q96RR4)
T6 construct: purchased Eurofins DiscoverX Corporation (KINOMEscan)

BMPR2 = molecular target: T7, BMPR2 (Homo sapiens, UniProt Q13873)
T7 construct: purchased Eurofins DiscoverX Corporation (KINOMEscan)

BRAF(V600E) = molecular target: T8, BRAF(V600E) (Homo sapiens, UniProt P15056, V600E)
T8 construct: purchased Eurofins DiscoverX Corporation (KINOMEscan)

SIK2 = SIK2 (Homo sapiens, UniProt Q9H0K1)
NEK10 = molecular target: T9, NEK10 (Homo sapiens, UniProt Q6ZWH5)
T9 construct: purchased Eurofins DiscoverX Corporation

[1] = molecular target: T10, ABL1(F317I)-nonphosphorylated (Homo sapiens, UniProt P00519, F317I)
T10 construct: purchased Eurofins DiscoverX Corporation

PLK1 = PLK1 (Homo sapiens, UniProt P53350)
ASK1 = ASK1 (Homo sapiens, UniProt Q99683)
FLT3 = FLT3 (Homo sapiens, UniProt P36888)
ROCK2 = ROCK2 (Homo sapiens, UniProt O75116)
FLT3(ITD) = system: FLT3(ITD)
NEK9 = NEK9 (Homo sapiens, UniProt Q8TD19)
PKN1 = PKN1 (Homo sapiens, UniProt Q16512)
PHKG1 = PHKG1 (Homo sapiens, UniProt Q16816)
[2] = molecular target: T11, ABL1(F317I)-phosphorylated (Homo sapiens, UniProt P00519, F317I)
T11 construct: purchased Eurofins DiscoverX Corporation

MAP3K3 = molecular target: T12, MAP3K3 (Homo sapiens, UniProt Q99759)
T12 construct: purchased Eurofins DiscoverX Corporation

PKAC-alpha = PKAC-alpha (Homo sapiens, UniProt P17612)
RAF1 = RAF1 (Homo sapiens, UniProt P04049)
ICK = molecular target: T13, ICK (Homo sapiens, UniProt Q9UPZ9)
T13 construct: purchased Eurofins DiscoverX (KINOMEscan)

SGK3 = SGK3 (Homo sapiens, UniProt Q96BR1)
PLK3 = PLK3 (Homo sapiens, UniProt Q9H4B4)
CLK3 = CLK3 (Homo sapiens, UniProt P49761)
RIPK1 = RIPK1 (Homo sapiens, UniProt Q13546)
EPHA1 = EPHA1 (Homo sapiens, UniProt P21709)
FLT4 = molecular target: T14, FLT4 (Homo sapiens, UniProt P35916)
T14 construct: purchased Eurofins DiscoverX Corporation

EPHB2 = EPHB2 (Homo sapiens, UniProt P29323)
AURKB = AURKB (Homo sapiens, UniProt Q96GD4)
EPHA2 = EPHA2 (Homo sapiens, UniProt P29317)
LKB1 = molecular target: T15, LKB1 (Homo sapiens, UniProt Q15831)
T15 construct: purchased Eurofins DiscoverX Corporation

MAP4K5 = molecular target: T16, MAP4K5 (Homo sapiens, UniProt Q9Y4K4)
T16 construct: purchased Eurofins DiscoverX Corporation

AURKA = AURKA (Homo sapiens, UniProt O14965)
SRPK2 = SRPK2 (Homo sapiens, UniProt P78362)
SRPK2, sequence (P78362 whole entry): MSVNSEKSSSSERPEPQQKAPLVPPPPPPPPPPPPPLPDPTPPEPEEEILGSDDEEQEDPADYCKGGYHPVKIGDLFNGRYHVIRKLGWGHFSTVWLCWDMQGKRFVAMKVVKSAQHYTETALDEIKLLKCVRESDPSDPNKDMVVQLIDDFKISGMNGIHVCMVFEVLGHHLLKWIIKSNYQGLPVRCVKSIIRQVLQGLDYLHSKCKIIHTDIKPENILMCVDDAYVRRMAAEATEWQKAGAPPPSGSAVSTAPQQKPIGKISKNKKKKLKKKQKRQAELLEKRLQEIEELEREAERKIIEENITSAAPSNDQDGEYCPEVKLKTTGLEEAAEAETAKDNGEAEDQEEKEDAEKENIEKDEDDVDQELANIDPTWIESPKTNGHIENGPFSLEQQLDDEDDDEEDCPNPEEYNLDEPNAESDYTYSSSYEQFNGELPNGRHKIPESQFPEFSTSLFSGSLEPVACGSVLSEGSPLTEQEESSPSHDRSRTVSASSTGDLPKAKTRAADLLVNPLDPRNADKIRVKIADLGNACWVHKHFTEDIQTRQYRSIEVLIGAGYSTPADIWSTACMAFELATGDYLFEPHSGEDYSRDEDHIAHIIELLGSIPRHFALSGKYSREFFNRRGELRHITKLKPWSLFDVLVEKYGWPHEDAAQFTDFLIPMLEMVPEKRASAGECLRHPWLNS

T7 sequence (Q13873 27-1038): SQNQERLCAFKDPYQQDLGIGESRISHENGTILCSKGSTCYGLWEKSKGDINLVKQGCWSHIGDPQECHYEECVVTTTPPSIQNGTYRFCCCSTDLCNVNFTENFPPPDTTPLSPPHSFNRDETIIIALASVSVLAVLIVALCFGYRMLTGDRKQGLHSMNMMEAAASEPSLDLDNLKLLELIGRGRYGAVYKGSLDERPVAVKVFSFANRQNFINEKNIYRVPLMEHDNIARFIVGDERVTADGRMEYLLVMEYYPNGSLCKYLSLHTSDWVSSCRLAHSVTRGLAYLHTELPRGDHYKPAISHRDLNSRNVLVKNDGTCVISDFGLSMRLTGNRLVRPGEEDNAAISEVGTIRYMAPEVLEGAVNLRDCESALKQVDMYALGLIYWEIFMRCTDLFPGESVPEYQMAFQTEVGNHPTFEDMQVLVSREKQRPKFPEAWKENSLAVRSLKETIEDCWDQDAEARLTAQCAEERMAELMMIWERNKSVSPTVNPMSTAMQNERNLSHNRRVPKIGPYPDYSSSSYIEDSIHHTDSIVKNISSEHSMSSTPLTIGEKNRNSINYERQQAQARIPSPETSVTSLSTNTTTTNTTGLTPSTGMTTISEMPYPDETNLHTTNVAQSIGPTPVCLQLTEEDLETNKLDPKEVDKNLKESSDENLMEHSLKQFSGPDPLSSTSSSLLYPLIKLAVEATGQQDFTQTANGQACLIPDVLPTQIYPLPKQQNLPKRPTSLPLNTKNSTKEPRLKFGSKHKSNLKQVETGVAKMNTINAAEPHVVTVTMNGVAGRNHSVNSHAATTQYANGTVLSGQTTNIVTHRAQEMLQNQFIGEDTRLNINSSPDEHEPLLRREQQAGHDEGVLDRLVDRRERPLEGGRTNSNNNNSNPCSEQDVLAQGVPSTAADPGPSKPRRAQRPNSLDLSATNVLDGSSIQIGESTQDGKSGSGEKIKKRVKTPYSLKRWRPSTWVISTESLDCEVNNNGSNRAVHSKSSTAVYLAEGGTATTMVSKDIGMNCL
RAF1, sequence (P04049 whole entry): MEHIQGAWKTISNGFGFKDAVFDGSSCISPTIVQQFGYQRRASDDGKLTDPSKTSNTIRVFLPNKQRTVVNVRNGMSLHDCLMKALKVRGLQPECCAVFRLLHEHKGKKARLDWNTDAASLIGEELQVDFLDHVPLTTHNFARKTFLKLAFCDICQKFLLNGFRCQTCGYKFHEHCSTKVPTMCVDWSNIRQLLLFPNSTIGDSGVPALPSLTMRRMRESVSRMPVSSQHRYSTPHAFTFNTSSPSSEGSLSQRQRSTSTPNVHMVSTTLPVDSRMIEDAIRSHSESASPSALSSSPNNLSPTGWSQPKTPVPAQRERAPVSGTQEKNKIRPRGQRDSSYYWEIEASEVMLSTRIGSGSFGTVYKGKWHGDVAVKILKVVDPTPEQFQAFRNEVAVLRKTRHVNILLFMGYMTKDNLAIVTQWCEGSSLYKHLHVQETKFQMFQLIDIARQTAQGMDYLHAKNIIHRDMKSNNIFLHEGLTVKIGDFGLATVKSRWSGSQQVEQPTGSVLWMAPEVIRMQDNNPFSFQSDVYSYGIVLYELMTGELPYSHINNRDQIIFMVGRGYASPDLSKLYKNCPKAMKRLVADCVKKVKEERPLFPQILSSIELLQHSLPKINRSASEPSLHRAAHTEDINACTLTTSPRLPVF
CLK3, sequence (P49761 whole entry): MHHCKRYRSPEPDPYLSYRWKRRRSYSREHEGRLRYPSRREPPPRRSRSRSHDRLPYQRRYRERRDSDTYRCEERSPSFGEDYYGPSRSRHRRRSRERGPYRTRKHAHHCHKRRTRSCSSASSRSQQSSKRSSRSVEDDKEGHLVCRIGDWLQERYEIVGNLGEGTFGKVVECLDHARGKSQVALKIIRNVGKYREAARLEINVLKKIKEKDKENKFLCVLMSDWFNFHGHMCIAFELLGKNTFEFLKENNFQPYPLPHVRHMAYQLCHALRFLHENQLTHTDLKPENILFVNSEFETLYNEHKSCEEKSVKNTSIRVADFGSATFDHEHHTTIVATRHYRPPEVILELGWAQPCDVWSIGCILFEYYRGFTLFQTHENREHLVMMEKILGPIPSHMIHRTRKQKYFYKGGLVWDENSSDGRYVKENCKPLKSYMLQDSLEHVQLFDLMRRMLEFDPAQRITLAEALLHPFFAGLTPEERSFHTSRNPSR
PKN1, sequence (Q16512 whole entry): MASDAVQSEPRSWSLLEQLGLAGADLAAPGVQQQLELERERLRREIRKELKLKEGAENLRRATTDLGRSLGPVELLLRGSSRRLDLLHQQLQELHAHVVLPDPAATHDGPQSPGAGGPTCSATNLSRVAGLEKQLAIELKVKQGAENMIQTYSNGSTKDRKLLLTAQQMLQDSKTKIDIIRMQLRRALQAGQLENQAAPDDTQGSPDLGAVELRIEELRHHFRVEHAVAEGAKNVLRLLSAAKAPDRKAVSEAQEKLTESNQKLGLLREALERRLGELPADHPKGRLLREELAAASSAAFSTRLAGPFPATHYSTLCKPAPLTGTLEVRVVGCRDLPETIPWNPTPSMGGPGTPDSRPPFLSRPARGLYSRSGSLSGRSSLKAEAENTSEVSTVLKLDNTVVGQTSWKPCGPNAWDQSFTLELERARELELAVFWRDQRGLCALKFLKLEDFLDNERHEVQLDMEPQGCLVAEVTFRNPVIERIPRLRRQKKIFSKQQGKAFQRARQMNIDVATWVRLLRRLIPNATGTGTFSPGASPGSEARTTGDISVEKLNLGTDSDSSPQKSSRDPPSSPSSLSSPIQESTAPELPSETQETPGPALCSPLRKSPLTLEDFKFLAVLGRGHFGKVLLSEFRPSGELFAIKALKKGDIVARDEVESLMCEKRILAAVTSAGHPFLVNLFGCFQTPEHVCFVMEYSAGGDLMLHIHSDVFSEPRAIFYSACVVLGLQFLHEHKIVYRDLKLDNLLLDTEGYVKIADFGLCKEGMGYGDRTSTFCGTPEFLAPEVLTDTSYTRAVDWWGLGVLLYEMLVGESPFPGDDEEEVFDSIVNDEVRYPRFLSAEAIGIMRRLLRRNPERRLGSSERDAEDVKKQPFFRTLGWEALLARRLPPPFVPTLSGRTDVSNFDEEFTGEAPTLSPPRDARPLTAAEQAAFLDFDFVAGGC
FLT3, sequence (P36888 27-993): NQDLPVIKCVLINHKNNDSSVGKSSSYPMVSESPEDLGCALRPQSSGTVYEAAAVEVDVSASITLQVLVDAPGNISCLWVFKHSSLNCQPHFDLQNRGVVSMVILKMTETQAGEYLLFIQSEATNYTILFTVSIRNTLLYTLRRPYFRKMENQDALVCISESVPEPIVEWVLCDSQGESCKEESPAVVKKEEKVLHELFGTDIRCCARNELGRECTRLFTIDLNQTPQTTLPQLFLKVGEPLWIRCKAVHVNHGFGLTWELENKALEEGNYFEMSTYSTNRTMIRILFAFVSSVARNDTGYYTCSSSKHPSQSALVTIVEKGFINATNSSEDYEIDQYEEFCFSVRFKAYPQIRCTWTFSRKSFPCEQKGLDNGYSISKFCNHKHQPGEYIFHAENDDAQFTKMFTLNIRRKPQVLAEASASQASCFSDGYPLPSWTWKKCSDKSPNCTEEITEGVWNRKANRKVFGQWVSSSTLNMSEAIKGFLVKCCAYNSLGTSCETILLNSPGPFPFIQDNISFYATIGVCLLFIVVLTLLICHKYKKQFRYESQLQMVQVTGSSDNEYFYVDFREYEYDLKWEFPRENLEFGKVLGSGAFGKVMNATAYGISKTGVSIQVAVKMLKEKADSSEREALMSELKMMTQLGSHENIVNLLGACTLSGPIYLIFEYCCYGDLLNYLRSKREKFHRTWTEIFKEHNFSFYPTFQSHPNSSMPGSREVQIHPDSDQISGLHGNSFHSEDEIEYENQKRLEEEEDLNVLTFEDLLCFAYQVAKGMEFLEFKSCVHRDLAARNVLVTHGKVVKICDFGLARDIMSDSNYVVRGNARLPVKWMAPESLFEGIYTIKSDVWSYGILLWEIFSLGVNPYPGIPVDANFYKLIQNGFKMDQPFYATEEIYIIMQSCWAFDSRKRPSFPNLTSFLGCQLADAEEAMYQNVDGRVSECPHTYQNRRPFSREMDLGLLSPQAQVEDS
AURKC, sequence (Q9UQB9 whole entry): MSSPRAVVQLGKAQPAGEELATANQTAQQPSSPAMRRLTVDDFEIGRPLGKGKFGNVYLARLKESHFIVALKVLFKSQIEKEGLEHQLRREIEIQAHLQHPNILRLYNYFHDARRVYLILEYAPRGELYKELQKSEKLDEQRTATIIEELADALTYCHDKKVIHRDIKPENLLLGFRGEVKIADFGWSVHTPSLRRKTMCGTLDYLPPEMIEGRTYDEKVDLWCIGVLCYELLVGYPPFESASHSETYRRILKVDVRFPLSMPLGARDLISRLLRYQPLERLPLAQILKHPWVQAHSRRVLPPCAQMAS

Compound: C=CC(=O)Nc1ccc(OC)c(Nc2cc(-c3[nH]c(CC)nc3-c3cccc(NC(=O)c4cccc5c4NC(=O)c4ccccc4N5)c3)ccn2)c1 [Compound 4]
- POC (HIPK4): 92% of control
- POC (KIT(L576P)): 84% of control
- POC (ERBB4): 4.9% of control
- POC (EPHA6): 90% of control
- POC (AURKC): 100% of control
- POC (LRRK2): 93% of control
- POC (DYRK1B): 88% of control
- POC (PIK3CA(I800L)): 100% of control
- POC (PIK3CA(H1047Y)): 66% of control
- POC (NEK6): 100% of control
- POC (DRAK1): 84% of control
- POC (CAMKK2): 95% of control
- POC (BMPR2): 88% of control
- POC (BRAF(V600E)): 100% of control
- POC (SIK2): 100% of control
- POC (NEK10): 86% of control
- POC [1]: 40% of control
- POC (PLK1): 50% of control
- POC (ASK1): 100% of control
- POC (FLT3): 100% of control
- POC (ROCK2): 94% of control
- POC (FLT3(ITD)): 100% of control
- POC (NEK9): 83% of control
- POC (PKN1): 88% of control
- POC (PHKG1): 96% of control
- POC [2]: 84% of control
- POC (MAP3K3): 51% of control
- POC (PKAC-alpha): 100% of control
- POC (RAF1): 73% of control
- POC (ICK): 100% of control
- POC (SGK3): 90% of control
- POC (PLK3): 87% of control
- POC (CLK3): 74% of control
- POC (RIPK1): 100% of control
- POC (EPHA1): 100% of control
- POC (FLT4): 100% of control
- POC (EPHB2): 100% of control
- POC (AURKB): 100% of control
- POC (EPHA2): 100% of control
- POC (LKB1): 100% of control
- POC (MAP4K5): 2.5% of control
- POC (AURKA): 90% of control
- POC (SRPK2): 100% of control
